Measurements taken from ChEMBL document CHEMBL5143664, “New synthetic phenylquinazoline derivatives induce apoptosis by targeting the pro-survival members of the BCL-2 family” (Bioorg Med Chem Lett, 2022).
The source made the active and inactive calls. No cut-off for these calls is given here.

Legend:
Format in all cases: functional, cell-based
MCF7 [1] = assay: Antiproliferative activity against cisplatin-resistant human MCF7-CR cells cultured as 3D-spheroids assessed as reduction in cell viability at 5 to 25 uM after 24 hrs by alamar blue assay; conditions: dose 5-25 µM, DDE = dose-dependent effect
MCF7 [2] = assay: Antiproliferative activity against human MCF7 cells assessed as reduction in cell viability at 15 uM after 24 hrs by MTT assay relative to control
MCF7 [3] = assay: Induction of cell death in human MCF7 cells assessed as reduction in cell volume at 10 uM after 24 hrs
MCF7 [4] = assay: Antiproliferative activity against human cisplatin resistant human MCF7-CR cells assessed as reduction in cell viability at 15 uM after 24 hrs by MTT assay relative to control
MCF7 [5] = assay: Antiproliferative activity against human MCF7 cells assessed as reduction in cell viability after 24 hrs by MTT assay; conditions: MCF7, 24 h
MCF7 [6] = assay: Antiproliferative activity against cisplatin-resistant human MCF7-CR cells assessed as reduction in cell viability after 24 hrs by MTT assay; conditions: MCF7, 24 h
MCF7 [7] = assay: Induction of cell death in cisplatin-resistant human MCF7-CR cells assessed as reduction in cell volume at 10 uM after 24 hrs
MCF7 [8] = assay: Induction of cell death in human MCF7 cells assessed as round cell morphology at 10 uM after 24 hrs
MCF7 [9] = assay: Induction of cell death in cisplatin-resistant human MCF7-CR cells assessed as round cell morphology at 10 uM after 24 hrs
MCF7 [10] = assay: Inhibition of colony formation in human MCF7 cells at 5 to 25 uM after 7 days; conditions: dose 5-25 µM, time 7.0 day, DDE = dose-dependent effect
MCF7 [11] = assay: Inhibition of colony formation in cisplatin-resistant human MCF7-CR cells at 5 to 25 uM after 7 days; conditions: dose 5-25 µM, time 7.0 day, DDE = dose-dependent effect
MCF7 [12] = assay: Antiproliferative activity against human MCF7 cells cultured as 3D-spheroids assessed as reduction in cell viability at 5 to 25 uM after 24 hrs by alamar blue assay; conditions: dose 5-25 µM, DDE = dose-dependent effect
MCF7 [13] = assay: Antiproliferative activity against human MCF7 cells transfected with empty vector assessed as reduction in cell viability after 24 hrs by MTT assay; conditions: MCF7, 24 h
MCF7 [14] = assay: Antiproliferative activity against human MCF7 cells transfected with MBR C3 vector assessed as reduction in cell viability after 24 hrs by MTT assay; conditions: MCF7, 24 h
MCF7 [15] = assay: Antiproliferative activity against human MCF7 cells transfected with BCLXL C5 vector assessed as reduction in cell viability after 24 hrs by MTT assay; conditions: MCF7, 24 h
MCF7 [16] = assay: Antiproliferative activity against cisplatin-resistant human MCF7-CR cells transfected with empty vector assessed as reduction in cell viability after 24 hrs by MTT assay; conditions: MCF7, 24 h
MCF7 [17] = assay: Antiproliferative activity against cisplatin-resistant human MCF7-CR cells transfected with MBR C2 vector assessed as reduction in cell viability after 24 hrs by MTT assay; conditions: MCF7, 24 h
MCF7 [18] = assay: Antiproliferative activity against cisplatin-resistant human MCF7-CR cells transfected with MBR C3 vector assessed as reduction in cell viability after 24 hrs by MTT assay; conditions: MCF7, 24 h
MCF7 [19] = assay: Synergistic antiproliferative activity against cisplatin-resistant human MCF7-CR cells assessed as reduction in cell viability in presence of cisplatin after 24 hrs by MTT assay; conditions: MCF7, 24 h
MCF7 [20] = assay: Synergistic antiproliferative activity against cisplatin-resistant human MCF7-CR cells assessed as reduction in cell viability in presence of taxol after 24 hrs by MTT assay; conditions: MCF7, 24 h
MCF7 [21] = assay: Synergistic antiproliferative activity against cisplatin-resistant human MCF7-CR cells assessed as reduction in cell viability in presence of ABT737 after 24 hrs by MTT assay; conditions: MCF7, 24 h
MCF7 [22] = assay: Induction of apoptosis in cisplatin-resistant human MCF7-CR cells assessed as decrease in BCL2 protein expression at 5 to 25 uM after 16 hrs by western blot analysis; conditions: dose 5-25 µM, DDE = dose-dependent effect
MCF7 [23] = assay: Induction of apoptosis in cisplatin-resistant human MCF7-CR cells assessed as decrease in BCLXL protein expression at 5 to 25 uM after 16 hrs by western blot analysis; conditions: dose 5-25 µM
MCF7 [24] = assay: Induction of apoptosis in cisplatin-resistant human MCF7-CR cells assessed as increase in release of cytochrome C in cytosol expression at 10 to 25 uM after 16 hrs by western blot analysis; conditions: dose 10-25 µM, DDE = dose-dependent effect

With `Fc1cc(-c2nc(-c3ccccc3)c3cc(Cl)ccc3n2)ccc1Br` the Activity (MCF7 [1]) was “Dde”, the Activity (MCF7 [2]) was “Active” and the Activity (MCF7 [3]) was “Active”. The Activity (MCF7 [4]) was “Active”, the EC50 (MCF7 [5]) was 5.02 µM and the EC50 (MCF7 [6]) was 5.44 µM. For the same molecule, the Activity (MCF7 [7]) was “Active”, the Activity (MCF7 [8]) was “Active” and the Activity (MCF7 [9]) was “Active”. The Activity (MCF7 [10]) was “Dde”, the Activity (MCF7 [11]) was “Dde” and the Activity (MCF7 [12]) was “Dde”. The EC50 (MCF7 [13]) was 8.62 µM, the EC50 (MCF7 [14]) was 2.96 µM and the EC50 (MCF7 [15]) was 6.87 µM. The EC50 (MCF7 [16]) was 22.4 µM, the EC50 (MCF7 [17]) was 5.04 µM and the EC50 (MCF7 [18]) was 5.19 µM. For the same molecule, the EC50 (MCF7 [19]) was 4.89 µM, the EC50 (MCF7 [20]) was 1.23 µM and the EC50 (MCF7 [21]) was 0.29 µM. For the same molecule, the Activity (MCF7 [22]) was “Dde”, the Activity (MCF7 [23]) was “Active” and the Activity (MCF7 [24]) was “Dde”.

`CC(C)(C)c1ccc(-c2nc(-c3ccccc3)c3cc(Cl)ccc3n2)cc1` was tested, and the Activity (MCF7 [2]) was “Active” and the Activity (MCF7 [4]) was “Active”.

In the case of `Cc1ccc(-c2nc(-c3ccccc3)c3cc(Cl)ccc3n2)cc1`, the Activity (MCF7 [2]) is reported as “Active” and the Activity (MCF7 [4]) is reported as “Active”.

In the case of `COc1ccc(-c2nc(-c3ccccc3)c3cc(Cl)ccc3n2)c(F)c1`, the Activity (MCF7 [2]) is reported as “Active” and the Activity (MCF7 [4]) is reported as “Active”.

`CCCCOc1ccc(-c2nc(-c3ccccc3)c3cc(Cl)ccc3n2)cc1` was tested, and the Activity (MCF7 [2]) was “Active” and the Activity (MCF7 [4]) was “Active”.

In the case of `CCOc1ccc(-c2nc(-c3ccccc3)c3cc(Cl)ccc3n2)cc1`, the Activity (MCF7 [2]) is reported as “Active” and the Activity (MCF7 [4]) is reported as “Active”.

For `FC(F)(F)c1ccc(-c2nc(-c3ccccc3)c3cc(Cl)ccc3n2)cc1`, the Activity (MCF7 [2]) was “Active” and the Activity (MCF7 [4]) was “Active”.

With `Oc1cccc(-c2nc(-c3ccccc3)c3cc(Cl)ccc3n2)c1O` the Activity (MCF7 [2]) was “Active” and the Activity (MCF7 [4]) was “Active”.

With `CCOc1cc(-c2nc(-c3ccccc3)c3cc(Cl)ccc3n2)ccc1OC` the Activity (MCF7 [2]) was “Active” and the Activity (MCF7 [4]) was “Active”.

`CN(C)CC[C@H](CSc1ccccc1)Nc1ccc(S(=O)(=O)NC(=O)c2ccc(N3CCN(Cc4ccccc4-c4ccc(Cl)cc4)CC3)cc2)cc1[N+](=O)[O-]` [ABT 737] was tested, and the EC50 (MCF7 [6]) was 4.39 µM.

`CC(=O)O[C@H]1C(=O)[C@@]2(C)[C@H]([C@H](OC(=O)c3ccccc3)[C@]3(O)C[C@H](OC(=O)[C@H](O)[C@@H](NC(=O)c4ccccc4)c4ccccc4)C(C)=C1C3(C)C)[C@]1(OC(C)=O)CO[C@@H]1C[C@@H]2O` [PACLITAXEL] was tested, and the EC50 (MCF7 [6]) was 44.7 µM.

With `Oc1ccccc1-c1nc(-c2ccccc2)c2cc(Cl)ccc2n1` the Activity (MCF7 [1]) was “Dde”, the Activity (MCF7 [2]) was “Active” and the Activity (MCF7 [3]) was “Active”. For the same molecule, the Activity (MCF7 [4]) was “Active”, the EC50 (MCF7 [5]) was 6.3 µM and the EC50 (MCF7 [6]) was 21.4 µM. For the same molecule, the Activity (MCF7 [7]) was “Active”, the Activity (MCF7 [8]) was “Active” and the Activity (MCF7 [9]) was “Active”. For the same molecule, the Activity (MCF7 [10]) was “Dde”, the Activity (MCF7 [11]) was “Dde” and the Activity (MCF7 [12]) was “Dde”. For the same molecule, the EC50 (MCF7 [13]) was 14.2 µM, the EC50 (MCF7 [14]) was 3.03 µM and the EC50 (MCF7 [15]) was 10.2 µM. The EC50 (MCF7 [16]) was 29.4 µM, the EC50 (MCF7 [17]) was 5.73 µM and the EC50 (MCF7 [18]) was 6.31 µM. It also gave an EC50 (MCF7 [19]) of 9.12 µM, an EC50 (MCF7 [20]) of 3.55 µM and an EC50 (MCF7 [21]) of 0.53 µM. For the same molecule, the Activity (MCF7 [22]) was “Dde”, the Activity (MCF7 [23]) was “Active” and the Activity (MCF7 [24]) was “Dde”.
